Experimental data reported in ChEMBL document CHEMBL3046208, “Natural and synthetic podolactones with potential use as natural herbicide models” (2000).
The source made the active and inactive calls. The calls are words filed in the database; no cut-off is given here.

Experiments:
Assay type in all cases: functional
[1] = tested on: Lactuca sativa; assay: Inhibition of root length of Lactuca sativa cv. Nigra (lettuce) at 0.1 mM after 5 days relative to untreated control
[2] = tested on: Solanum lycopersicum; assay: Inhibition of root length of Solanum lycopersicum (tomato) at 0.1 mM after 5 days relative to untreated control; details: 120 h
[3] = tested on: Lactuca sativa; assay: Stimulation of shoot length of Lactuca sativa cv. Roman (lettuce) at 0.1 mM after 5 days relative to untreated control
[4] = tested on: Lactuca sativa; assay: Stimulation of germination of Lactuca sativa cv. Nigra (lettuce) at 0.1 mM after 5 days relative to untreated control
[5] = tested on: Allium cepa; assay: Stimulation of root length of Allium cepa (onion) at 0.1 mM after 5 days relative to untreated control
[6] = tested on: Lactuca sativa; assay: Stimulation of root length of Lactuca sativa cv. Nigra (lettuce) at 0.1 mM after 5 days relative to untreated control
[7] = tested on: Solanum lycopersicum; assay: Inhibition of germination of Solanum lycopersicum (tomato) at 0.1 mM after 5 days relative to untreated control; details: 120 h
[8] = tested on: Solanum lycopersicum; assay: Stimulation of root length of Solanum lycopersicum (tomato) at 0.1 mM after 5 days relative to untreated control
[9] = tested on: Hordeum vulgare; assay: Stimulation of germination of Hordeum vulgare (barley) at 0.1 mM after 5 days relative to untreated control
[10] = tested on: Hordeum vulgare; assay: Stimulation of shoot length of Hordeum vulgare (barley) at 0.1 mM after 5 days relative to untreated control
[11] = tested on: Triticum aestivum; assay: Inhibition of root length of Triticum aestivum (wheat) at 0.1 mM after 5 days relative to untreated control
[12] = tested on: Lactuca sativa; assay: Stimulation of root length of Lactuca sativa cv. Roman (lettuce) at 0.1 mM after 5 days relative to untreated control
[13] = tested on: Allium cepa; assay: Stimulation of shoot length of Allium cepa (onion) at 0.1 mM after 5 days relative to untreated control
[14] = tested on: Hordeum vulgare; assay: Stimulation of root length of Hordeum vulgare (barley) at 0.1 mM after 5 days relative to untreated control
[15] = tested on: Triticum aestivum; assay: Stimulation of root length of Triticum aestivum (wheat) at 0.1 mM after 5 days relative to untreated control
[16] = tested on: Allium cepa; assay: Inhibition of shoot length of Allium cepa (onion) at 0.1 mM after 5 days relative to untreated control; details: 120 h
[17] = tested on: Lactuca sativa; assay: Inhibition of root length of Lactuca sativa cv. Roman (lettuce) at 0.1 mM after 5 days relative to untreated control
[18] = tested on: Triticum aestivum; assay: Inhibition of germination of Triticum aestivum (wheat) at 0.1 mM after 5 days relative to untreated control
[19] = tested on: Hordeum vulgare; assay: Inhibition of germination of Hordeum vulgare (barley) at 0.1 mM after 5 days relative to untreated control; details: 120 h
[20] = tested on: Lepidium sativum; assay: Stimulation of root length of Lepidium sativum at 0.1 mM after 5 days relative to untreated control
[21] = tested on: Allium cepa; assay: Inhibition of root length of Allium cepa (onion) at 0.1 mM after 5 days relative to untreated control
[22] = tested on: Lactuca sativa; assay: Inhibition of germination of Lactuca sativa cv. Nigra (lettuce) at 0.1 mM after 5 days relative to untreated control
[23] = tested on: Solanum lycopersicum; assay: Stimulation of germination of Solanum lycopersicum (tomato) at 0.1 mM after 5 days relative to untreated control
[24] = tested on: Lepidium sativum; assay: Stimulation of shoot length of Lepidium sativum at 0.1 mM after 5 days relative to untreated control
[25] = tested on: Lactuca sativa; assay: Inhibition of shoot length of Lactuca sativa cv. Nigra (lettuce) at 0.1 mM after 5 days relative to untreated control
[26] = tested on: Lactuca sativa; assay: Stimulation of germination of Lactuca sativa cv. Roman (lettuce) at 0.1 mM after 5 days relative to untreated control
[27] = tested on: Allium cepa; assay: Stimulation of germination of Allium cepa (onion) at 0.1 mM after 5 days relative to untreated control
[28] = tested on: Lepidium sativum; assay: Inhibition of root length of Lepidium sativum at 0.1 mM after 5 days relative to untreated control
[29] = tested on: Allium cepa; assay: Inhibition of germination of Allium cepa (onion) at 0.1 mM after 5 days relative to untreated control; details: 120 h
[30] = tested on: Lactuca sativa; assay: Stimulation of shoot length of Lactuca sativa cv. Nigra (lettuce) at 0.1 mM after 5 days relative to untreated control
[31] = tested on: Solanum lycopersicum; assay: Inhibition of shoot length of Solanum lycopersicum (tomato) at 0.1 mM after 5 days relative to untreated control; details: 120 h
[32] = tested on: Triticum aestivum; assay: Inhibition of shoot length of Triticum aestivum (wheat) at 0.1 mM after 5 days relative to untreated control
[33] = tested on: Hordeum vulgare; assay: Inhibition of shoot length of Hordeum vulgare (barley) at 0.1 mM after 5 days relative to untreated control
[34] = tested on: Solanum lycopersicum; assay: Stimulation of shoot length of Solanum lycopersicum (tomato) at 0.1 mM after 5 days relative to untreated control
[35] = tested on: Triticum aestivum; assay: Stimulation of germination of Triticum aestivum (wheat) at 0.1 mM after 5 days relative to untreated control
[36] = tested on: Lepidium sativum; assay: Inhibition of germination of Lepidium sativum at 0.1 mM after 5 days relative to untreated control
[37] = tested on: Lactuca sativa; assay: Inhibition of shoot length of Lactuca sativa cv. Roman (lettuce) at 0.1 mM after 5 days relative to untreated control; details: 120 h
[38] = tested on: Triticum aestivum; assay: Stimulation of shoot length of Triticum aestivum (wheat) at 0.1 mM after 5 days relative to untreated control
[39] = tested on: Hordeum vulgare; assay: Inhibition of root length of Hordeum vulgare (barley) at 0.1 mM after 5 days relative to untreated control; details: 120 h
[40] = tested on: Lepidium sativum; assay: Stimulation of germination of Lepidium sativum at 0.1 mM after 5 days relative to untreated control
[41] = tested on: Lepidium sativum; assay: Inhibition of shoot length of Lepidium sativum at 0.1 mM after 5 days relative to untreated control
[42] = tested on: Lactuca sativa; assay: Inhibition of germination of Lactuca sativa cv. Roman (lettuce) at 0.1 mM after 5 days relative to untreated control; details: 120 h

COC(=O)[C@@]1(C)CCC[C@@]2(C)[C@H]1CC=C1COC(=O)C[C@@H]12
inhibition at 100 µM ([1]; 120 h): < 20%
inhibition at 100 µM [2]: > 40%
Activity [3]: <20%
Activity [4]: <20%
Activity [5]: inactive
Activity [6]: <20%
inhibition at 100 µM [7]: < 20%
Activity [8]: >40%
Activity [9]: >40%
Activity [10]: inactive
inhibition [11]: inactive
Activity [12]: <20%
Activity [13]: <20%
Activity [14]: 20%
Activity [15]: inactive
inhibition at 100 µM [16]: < 20%
inhibition at 100 µM ([17]; 120 h): < 20%
inhibition at 100 µM ([18]; 120 h): < 20%
inhibition at 100 µM [19]: > 40%
Activity [20]: inactive
inhibition [21]: inactive
inhibition at 100 µM ([22]; 120 h): < 20%
Activity [23]: <20%
Activity [24]: <20%
inhibition at 100 µM ([25]; 120 h): < 20%
Activity [26]: <20%
Activity [27]: 20%
inhibition [28]: inactive
inhibition at 100 µM [29]: 20%
Activity [30]: <20%
inhibition at 100 µM [31]: 20%
inhibition [32]: inactive
inhibition [33]: inactive
Activity [34]: 20%
Activity [35]: <20%
inhibition [36]: inactive
inhibition at 100 µM [37]: < 20%
Activity [38]: inactive
inhibition at 100 µM [39]: 20%
Activity [40]: inactive
inhibition at 100 µM ([41]; 120 h): < 20%
inhibition at 100 µM [42]: < 20%

COC(=O)[C@@]1(C)CCC[C@]2(C)C3=CC(=O)OC[C@]34O[C@@H]4C[C@@H]12
inhibition [1]: inactive
inhibition at 100 µM [2]: < 20%
Activity [3]: <20%
Activity [4]: inactive
Activity [5]: <20%
Activity [6]: inactive
inhibition at 100 µM [7]: 20%
Activity [8]: <20%
Activity [9]: 20%
Activity [10]: <20%
inhibition at 100 µM ([11]; 120 h): 20%
Activity [12]: inactive
Activity [13]: <20%
Activity [14]: 20%
Activity [15]: 20%
inhibition at 100 µM [16]: < 20%
inhibition [17]: inactive
inhibition [18]: inactive
inhibition at 100 µM [19]: 20%
Activity [20]: inactive
inhibition at 100 µM ([21]; 120 h): < 20%
inhibition [22]: inactive
Activity [23]: 20%
Activity [24]: inactive
inhibition [25]: inactive
Activity [26]: <20%
Activity [27]: <20%
inhibition [28]: inactive
inhibition at 100 µM [29]: < 20%
Activity [30]: inactive
inhibition at 100 µM [31]: 20%
inhibition [32]: inactive
inhibition at 100 µM ([33]; 120 h): < 20%
Activity [34]: 20%
Activity [35]: inactive
inhibition [36]: inactive
inhibition at 100 µM [37]: < 20%
Activity [38]: inactive
inhibition at 100 µM [39]: 20%
Activity [40]: inactive
inhibition [41]: inactive
inhibition at 100 µM [42]: < 20%
